Test results: BindingDB's records for patent US20240307415 (Jiangsu Simcere Pharmaceutical, 2024)

Target: T1, Glucocorticoid receptor (Homo sapiens, UniProt P04150)
T1 sequence (P04150 whole entry): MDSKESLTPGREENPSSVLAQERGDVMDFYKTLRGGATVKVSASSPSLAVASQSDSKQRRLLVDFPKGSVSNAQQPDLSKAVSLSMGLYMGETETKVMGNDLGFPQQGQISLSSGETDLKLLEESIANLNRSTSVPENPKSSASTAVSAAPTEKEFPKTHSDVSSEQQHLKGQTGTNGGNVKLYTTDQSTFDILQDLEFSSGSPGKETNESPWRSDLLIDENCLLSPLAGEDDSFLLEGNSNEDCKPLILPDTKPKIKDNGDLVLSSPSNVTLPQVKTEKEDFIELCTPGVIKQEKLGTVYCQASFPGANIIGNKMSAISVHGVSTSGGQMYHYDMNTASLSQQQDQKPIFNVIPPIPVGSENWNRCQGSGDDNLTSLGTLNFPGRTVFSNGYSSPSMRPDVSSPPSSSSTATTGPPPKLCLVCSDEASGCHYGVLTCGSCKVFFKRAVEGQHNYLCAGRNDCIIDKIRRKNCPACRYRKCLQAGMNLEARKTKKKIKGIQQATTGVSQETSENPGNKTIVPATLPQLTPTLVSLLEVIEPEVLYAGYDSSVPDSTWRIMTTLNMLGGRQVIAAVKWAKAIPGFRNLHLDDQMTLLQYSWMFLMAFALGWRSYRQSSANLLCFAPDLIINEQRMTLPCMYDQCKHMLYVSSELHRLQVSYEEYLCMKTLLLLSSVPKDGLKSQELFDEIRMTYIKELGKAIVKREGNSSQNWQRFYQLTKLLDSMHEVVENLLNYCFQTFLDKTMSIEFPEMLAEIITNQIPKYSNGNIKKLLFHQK
Assay: Binding Activity of Compound of the Present Invention to Glucocorticoid Receptor GR
Protocol: The binding activity of the compound to GR was determined using the Polarscreen Glucocorticoid Receptor Assay Kit, Red (brand: Thermo, Cat. No: A15898). […] The highest concentration was 100 μM, 8 concentrations in total.

## C[C@]12C=CC(=O)C=C1CC[C@@H]1[C@@H]2[C@@H](O)C[C@@]2(C)[C@H]1C[C@H]1O[C@@H](c3ccc(Cc4ccc5cc[nH]c5c4)cc3)O[C@]12C(=O)CO [US20240307415, Compound 003]
  EC50: 121 nM
